Entries after “also recorded” stand apart in the source; their conditions may differ.
Columns and labels:
κ2 receptor = test: Displacement of [^3 H]BRM (bremazocine), κ2 receptor binding, guinea pig brain membranes depleted of μ and δ sites
κ1 receptor = biological target: T1, κ1 receptor (Cavia porcellus, UniProt P41144); test: biochemical; type: binding, guinea pig
T1 construct: from tissue; host or cells: guinea pig brain membranes, pretreated with BIT and FIT

μ and κ2 receptor = test: Displacement of [^3 H]CycloFOXY, μ and κ2 receptor binding, rat brain lysed-P2 membranes
Low Affinity δ Receptors = test: Displacement of [^3 H]DADLE, low affinity δ receptors, rat lysed-P2 membranes; type: binding
[1] = biological target: T2, High Affinity δ Receptors (Rattus norvegicus, UniProt P33533); test: Displacement of [^3 H]DADLE, high affinity δ receptors, rat lysed-P2 membranes; type: binding
T2 construct: and rat lysed-P2 membranes as previously described; from tissue; host or cells: rat lysed-P2 membranes (brain)

[2] = tested on: morphine-induced analgesia; test: In vivo antagonist activity: reversal of morphine-induced analgesia, rat paw withdrawal latency test; details: for paw withdrawal latency after i.v. injection: tested within 5-10 min; for reversal of behavioral arrest and other opioid effects: morphine sulphate 10 mg/kg s.c.; for blood brain barrier penetration: i.v., inferred from reversal of morphine effects in rats; for antagonist potency in vivo (comparison in words): morphine induced paw withdrawal latency; for reversal of the effects of morphine: rat paw withdrawal latency test
Procedure: Assessment of the ability of compounds 1, 2 and 10, 12 to cross the blood brain barrier was tested in male Sprague-Dawley rats (300 g) acutely treated with morphine. […] A baseline paw withdrawal to a radiant thermal stimulus was obtained in unrestrained animals as described in Iadarola et al., Brain Res. 1988, 455, 205-212 and Hargreaves, Pain 1988, 32, 77-78. The stimulus was set to give a baseline withdrawal latency of approximately 10 sec. and the cutoff was at 18 sec. After baseline testing, morphine sulphate, 10 mg/kg, was injected subcutaneously in a volume of 0.1 ml of saline/100 g of body weight.
Ioxy (1) and epiloxy (2) were evaluated in rat and guinea pig brain membranes for their opiate receptor selectivity and potency. […] This comparison was not made during development of the ^18 F cyclofoxy compounds.

μ receptor = biological target: T3, μ receptor (Rattus norvegicus, UniProt P33535); test: Displacement of [^3 H]DAGO, μ receptor binding, rat lysed-P2 membranes
T3 construct: and rat lysed-P2 membranes as previously described; from tissue; host or cells: rat brain, lysed-P2 membranes

[3] = tested on: opiate rich areas of rat brain; test: In vivo labelling of rat brain determined by autoradiography; details: i.v. in rats, preliminary
Procedure: The radiolabelled products were stored at -20° C. and used within 1 week of purification. The material was dried down under a gentle stream of nitrogen and redissolved in normal saline prior to intravenous (IV) injection into rats (300 g, male Sprague-Dawley) in a volume of 100 μl/100 g body weight.
Cleavage of the 3-O-acetyl group of [^125 I]3-O-Acetylioxy ([^125 I]10) was performed starting with 315 μCi of [^125 I]3-O-Acetylioxydissolved in 50 μl of acetonitrile. To this solution at 25° C. was added 50 μl of concentrated aqueous ammonia solution and the reaction mixture was allowed to stand at 25° C. for 20 min. The reaction solvent was removed by careful evaporation under a stream of nitrogen. The residue was dissolved in 50 μl of 0.1% aqueous TFA/acetonitrile and purified by HPLC as described above for [^125 I]3-O-Acetylioxy to give [^125 I]1 (279 μCi, 88.5% yield). […] The [^125 I]ioxy eluted with the exact elution profile of unlabelled ioxy(1). The product was stored at -20° C. and used within 1 week of purification. The material was dried down under a gentle stream of nitrogen and redissolved in normal saline prior to intravenous (IV) injection into rats (300 g, male Sprague-Dawley) in a volume of 100 μl/100 g body weight.

[4] = 5 mg/kg i.v., morphine-treated rats

T1 sequence (P41144 whole entry): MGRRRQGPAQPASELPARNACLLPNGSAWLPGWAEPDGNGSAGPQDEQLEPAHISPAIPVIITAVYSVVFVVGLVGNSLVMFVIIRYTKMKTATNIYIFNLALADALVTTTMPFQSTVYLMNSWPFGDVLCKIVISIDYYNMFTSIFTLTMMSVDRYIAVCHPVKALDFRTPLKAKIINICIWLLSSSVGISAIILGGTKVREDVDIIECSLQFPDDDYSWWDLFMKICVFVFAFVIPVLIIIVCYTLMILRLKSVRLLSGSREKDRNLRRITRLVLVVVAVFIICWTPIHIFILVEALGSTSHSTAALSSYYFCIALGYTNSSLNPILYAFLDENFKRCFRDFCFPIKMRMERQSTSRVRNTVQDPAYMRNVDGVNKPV
T2 sequence (P33533 whole entry): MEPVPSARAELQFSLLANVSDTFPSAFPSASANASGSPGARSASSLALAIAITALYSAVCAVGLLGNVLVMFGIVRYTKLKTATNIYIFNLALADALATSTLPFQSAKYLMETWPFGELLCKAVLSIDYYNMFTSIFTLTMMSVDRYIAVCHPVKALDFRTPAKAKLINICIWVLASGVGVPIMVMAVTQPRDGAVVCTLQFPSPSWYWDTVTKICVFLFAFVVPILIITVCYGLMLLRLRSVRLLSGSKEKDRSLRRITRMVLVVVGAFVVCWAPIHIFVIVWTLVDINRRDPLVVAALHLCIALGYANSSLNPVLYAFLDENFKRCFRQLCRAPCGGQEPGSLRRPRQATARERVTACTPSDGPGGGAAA
T3 sequence (P33535 whole entry): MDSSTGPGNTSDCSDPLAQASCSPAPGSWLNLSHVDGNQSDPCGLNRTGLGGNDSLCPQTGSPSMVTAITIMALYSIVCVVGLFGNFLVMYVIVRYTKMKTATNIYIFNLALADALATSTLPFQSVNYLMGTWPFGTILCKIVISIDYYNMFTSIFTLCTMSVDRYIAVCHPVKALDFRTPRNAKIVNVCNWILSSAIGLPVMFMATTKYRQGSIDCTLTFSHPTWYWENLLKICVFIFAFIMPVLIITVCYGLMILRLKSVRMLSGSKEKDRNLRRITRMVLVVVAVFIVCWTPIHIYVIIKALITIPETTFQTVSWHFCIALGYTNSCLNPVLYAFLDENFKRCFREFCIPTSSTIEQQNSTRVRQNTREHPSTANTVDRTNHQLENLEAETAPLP

Oc1ccc2c3c1O[C@H]1[C@H](I)CC[C@@]4(O)[C@@H](C2)N(CC2CC2)CC[C@]314 [IOXY, 6β-Iodo-3,14-Dihydroxy-17-Cyclopropylmethyl-4,5α-Epoxymorphinan]
IC50 (κ2 receptor): 7.65 ± 0.23 nM | Ki (κ2 receptor): 2.73 nM | kappa selectivity κ2/μ (κ2 receptor; ratio κ2/μ): 0.3 | IC50 (κ1 receptor): 0.89 ± 0.01 nM | Ki (κ1 receptor): 0.42 nM | N (slope factor) (κ1 receptor): 1.04 ± .02 | kappa selectivity κ1/μ (κ1 receptor): 1.9 | relative potency in words (κ1 receptor): most potent displacers | IC50 (μ and κ2 receptor): 0.77 ± 0.05 nM | Ki (μ and κ2 receptor): 0.29 nM | relative affinity / potency in words (μ and κ2 receptor; [^3 H]CycloFOXY displacement): more potent than the opiate antagonist, naltrexone | Ki (Low Affinity δ Receptors): 2.25 nM | relative affinity in words (Low Affinity δ Receptors; [^3 H]DADLE, low affinity δ): highest affinity of all the compounds tested | IC50 (Low Affinity δ Receptors; […], ligand concentration = 2.1 nM): 2.64 ± 0.21 nM | IC50 [1]: 5.6 ± 3.1 nM | Ki [1]: 11.7 nM | N (slope factor) ([1]; [^3 H]DADLE, high affinity δ): 0.77 ± .07 | paw withdrawal latency after i.v. injection [2, 4]: returned to near baseline values | reversal of behavioral arrest and other opioid effects ([2]; 5 mg/kg i.v.): reversed in a matter of seconds | duration of reversal [2, 4]: at least 40 min | blood brain barrier penetration [2]: readily passed the blood brain barrier | blood brain barrier penetration ([2]; listed as 1): getting into the brain | antagonist potency in vivo (comparison in words) ([2]; listed as Ioxy): more potent in vivo than compound 2 and cyclofoxy | antagonist potency in vivo (comparison in words) ([2]; listed as ioxy): potent opioid receptor antagonist in the rat; also recorded: more effective than epiioxy | reversal of the effects of morphine [2]: complete reversal of the effects of morphine | IC50 (μ receptor): 2.74 ± 0.21 nM | Ki (μ receptor): 0.8 nM | N (slope factor) (μ receptor; [^3 H]DAGO displacement): 1.05 ± .07 | relative potency in words (μ receptor; [^3 H]DAGO displacement): most potent

O=C1CC[C@@]2(O)[C@H]3Cc4ccc(O)c5c4[C@@]2(CCN3CC2CC2)[C@H]1O5 [Naltrexone, reference compound]
paw withdrawal latency after i.v. injection [2, 4]: returned to near baseline values | reversal of behavioral arrest and other opioid effects ([2]; 5 mg/kg i.v.): reversed in a matter of seconds | reversal of the effects of morphine [2]: complete reversal of the effects of morphine

Oc1ccc2c3c1O[C@H]1[C@H](F)CC[C@@]4(O)[C@@H](C2)N(CC2CC2)CC[C@]314 [[^3 H]CycloFOXY, reference compound]
Kd (μ and κ2 receptor; [^3 H]CycloFOXY, read-out: Kd of radioligand): 0.8 nM

Oc1ccc2c3c1O[C@H]1[C@H]([125I])CC[C@@]4(O)[C@@H](C2)N(CC2CC2)CC[C@]314 [[^125 I]1]
in vivo labelling of rat brain [3]: could label opiate rich areas of rat brain

CC(=O)Oc1ccc2c3c1O[C@H]1[C@H]([125I])CC[C@@]4(O)[C@@H](C2)N(CC2CC2)CC[C@]314 [[^125 I]10, [^125 I]3-Acetoxy-6β-Iodo-14-Hydroxy-17-Cyclopropylmethyl-4,5α-Epoxymorphinan]
in vivo labelling of rat brain [3]: could label opiate rich areas of rat brain

[D-ala^2, D-leu^5 ]enkephalin [[^3 H] DADLE, reference compound]
Kd (Low Affinity δ Receptors; [^3 H]DADLE, low affinity δ, δcx site, read-out: Kd of radioligand): 12.2 nM
